Patent US5428061A, “Organic nitrates and method for their preparation” (Schwarz Pharma AG, priority 1988, dated 1995)
Where two headings read alike, the source gives them in different places. One block for each molecule: values may come before it.

Assays:
[1] = test system: circulatory parameters of a dog that is awake; test: Action of organic nitrates on circulatory parameters of the awake dog after intravenous or oral administration; format: in vivo; conditions: awake beagle dogs
Protocol: Administration of new organic nitrates to detect the nitrate action on the circulatory parameters of a dog that is awake.
The purpose of the test is to determine how the new organic nitrates act on various circulatory parameters of a dog that is awake after intravenous or oral administration. All experiments were carried out on trained beagle dogs; the circulatory parameters were measured with an arterial catheter tip manometer and a balloon catheter introduced into the V. jugularis. In order to describe the action on the arterial system, the systolic, mean and diastolic blood pressure (BP) and heart rate (HR) were measured. […] The low pressure system was measured through the central venous pressure (CVP) and the pulmonary arterial pressure (PAP). The control or reference product used was isosorbid-5-mononitrate (ISM-5).

[2] = test system: isolated perfused rat heart; test: Coronary flow increase and tolerance in isolated perfused working rat heart; conditions: for Activity Drop in flow / Maximum Coronary Increase: 100 μM, isolated perfused rat hearts, n = 7; for Maximum Coronary Increase: x ± SEM
Description: Determining the lack of tolerance to the action of new organic nitrates on increasing coronary flow in isolated perfused heart.
The purpose of the present investigation was to study the action and the development of tolerance to new organic nitrate compounds on isolated perfused rat heart. For this purpose, a rat heart was isolated and prepared as a "working heart".
In this experimental arrangement, the heart performs defined circulatory work from which a defined oxygen consumption and coronary flow result. The action of nitrate-like compounds can be measured in this model by the drug-induced coronary flow increase.
The resistance of the coronary vessels on an isolated working rat heart was chosen as the parameter for the detection of the action of the nitrate. A rat heart with a weight of about one gram is perfused through the left auricle with a plasma-like solution which contains nutrients and is saturated with oxygen. The left ventricle pumps the solution into the aorta against a defined pressure. Corresponding to the physiological conditions, a part of this solution flows through the coronary vessels for supplying the heart itself. At a defined work of the heart, this fraction, from which the coronary resistance can be calculated, is constant. The addition of a nitrate or other coronary dilating drug causes a drop in this coronary resistance. Therefore, if a constant concentration of an organic nitrate is introduced to the heart, then, after an initial decrease of the resistance, a partial loss of activity occurs within 20 minutes. On this model, the substances also show a coronary dilating effect, but this is not followed by a loss in activity. The maximum drop of the coronary resistance is still completely present after 60 minutes. The tested compounds were compared in an equimolar dosage with 10^-4 M nitroglycerin trinitrate. Continuous infusion of nitroglycerin causes a rapid coronary flow increase by 7.6±1.88 ml/min gww (x±SD). […] Upon further perfusion, the action of nitroglycerin is unchanged. In this experimental model, the new nitrates also show a coronary flow increase, but this is followed by only a very slight drop in the activity.

guinea pig heart = test: Coronary flow in working heart model (guinea pig heart); conditions: for EC25: Cavia porcellus, read-out: concentration for a coronary flow increase of 25%
Protocol: Finally, the action of N-(3-nitratopivaloyl)-cysteine ethyl ester (Nitrato-Piv-Cy-Et) was characterized on guinea pig heart. […] A flow increase of 25% is achieved even with 380 μg of nitrato-Piv-Cy-Et per liter of perfusion medium, corresponding to 1.3 μmole per liter. The corresponding concentration for glycerol trinitrate (GTN) with 5 mg/liter is at least a factor of 12 times higher. Thus, in the case of Nitrato-Piv-Cy-Et we are dealing with an especially active compound with regard to the vessels.

isolated guanyl cyclase = target: T1, isolated guanyl cyclase (Homo sapiens, UniProt Q02153); test: Activation of isolated guanyl cyclase (cGMP formation); format: biochemical; conditions: isolated enzyme; for EC50: read-out: concentration necessary for one-half of the maximum activity (ED50) of guanyl cyclase
T1 sequence (Q02153 1-619): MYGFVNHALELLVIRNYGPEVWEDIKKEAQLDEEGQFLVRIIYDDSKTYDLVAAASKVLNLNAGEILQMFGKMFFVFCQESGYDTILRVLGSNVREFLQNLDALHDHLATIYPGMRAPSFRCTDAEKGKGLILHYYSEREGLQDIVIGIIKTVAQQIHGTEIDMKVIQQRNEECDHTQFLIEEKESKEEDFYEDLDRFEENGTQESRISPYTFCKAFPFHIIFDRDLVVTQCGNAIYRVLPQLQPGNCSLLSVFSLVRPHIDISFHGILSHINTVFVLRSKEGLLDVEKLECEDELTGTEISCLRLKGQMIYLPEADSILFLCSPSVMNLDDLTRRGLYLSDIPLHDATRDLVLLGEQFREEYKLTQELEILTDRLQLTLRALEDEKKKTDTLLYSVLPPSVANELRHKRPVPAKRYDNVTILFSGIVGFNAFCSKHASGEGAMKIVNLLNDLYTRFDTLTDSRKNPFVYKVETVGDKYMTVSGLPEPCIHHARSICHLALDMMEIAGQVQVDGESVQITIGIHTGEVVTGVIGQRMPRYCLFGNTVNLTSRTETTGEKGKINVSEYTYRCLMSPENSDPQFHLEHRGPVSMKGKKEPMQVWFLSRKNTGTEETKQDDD
T1 sequence (Q02108 1-690 partner): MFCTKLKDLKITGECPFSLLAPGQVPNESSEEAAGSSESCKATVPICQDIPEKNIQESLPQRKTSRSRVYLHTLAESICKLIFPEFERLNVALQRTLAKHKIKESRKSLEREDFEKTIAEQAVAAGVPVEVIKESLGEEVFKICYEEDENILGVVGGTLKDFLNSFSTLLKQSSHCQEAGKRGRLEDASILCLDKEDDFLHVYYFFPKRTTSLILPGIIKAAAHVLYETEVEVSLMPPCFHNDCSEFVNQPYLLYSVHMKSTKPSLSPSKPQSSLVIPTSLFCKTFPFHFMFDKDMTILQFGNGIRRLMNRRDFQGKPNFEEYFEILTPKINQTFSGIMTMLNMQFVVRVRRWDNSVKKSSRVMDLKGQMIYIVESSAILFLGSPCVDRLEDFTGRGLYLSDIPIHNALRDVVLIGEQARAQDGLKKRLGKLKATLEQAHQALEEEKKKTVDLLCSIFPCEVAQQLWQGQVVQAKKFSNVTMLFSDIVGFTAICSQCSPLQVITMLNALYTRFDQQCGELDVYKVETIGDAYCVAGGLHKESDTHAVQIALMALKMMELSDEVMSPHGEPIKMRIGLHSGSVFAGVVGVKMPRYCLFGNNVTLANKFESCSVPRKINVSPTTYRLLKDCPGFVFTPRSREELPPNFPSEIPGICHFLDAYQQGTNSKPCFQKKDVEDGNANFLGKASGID
Description: The concentration necessary for one-half of the maximum activity (ED50) of guanyl cyclase is around 200 μmole/liter. The corresponding value for GTN (in the presence of 5 mmoles/liter of cysteine) is approximately 80 μmoles/liter.

[3] = oral and intravenous administration
[4] = continuous infusion, 10^-4 M, isolated working rat heart
[5] = working heart model, guinea pig

SMILES: O=[N+]([O-])O[C@@H]1CO[C@H]2[C@@H]1OC[C@@H]2O [ISM-5, isosorbid-5-mononitrate]
extensibility of the air chamber [1, 3]: increased significantly
low pressure system pressure [1, 3]: decreased
mean pressure [1, 3]: hardly effected
systolic blood pressure [1, 3]: slight decrease

SMILES: O=[N+]([O-])OCC(CO[N+](=O)[O-])O[N+](=O)[O-] [nitroglycerine, glycerol trinitrate, reference compound]
Activity Drop in flow [2]: 56.0%
Maximum Coronary Increase [2]: 7.6 ± 0.71 ml/min gww
coronary flow increase (x±SD) [2, 4]: 7.6±1.88 ml/min gww
decrease of flow within 20 minutes [2, 4]: 55.9%
EC25 (guinea pig heart; [5]): 5 µg/mL
factor by which the concentration for 25% flow increase is higher than for Nitrato-Piv-Cy-Et (guinea pig heart; [5]): ≥ 12 times
EC50 (isolated guanyl cyclase; in the presence of 5 mmoles/liter of cysteine): ~80 µM

bioavailability (comparison between intravenous and oral administration) [1]: good bioavailability
SMILES: CCOC(=O)[C@H](CCSC)NC(=O)C(C)(C)CO[N+](=O)[O-] [N-(3-nitratopivaloyl)-methionine ethyl ester]
Activity Drop in flow [2]: 7.0%
Maximum Coronary Increase [2]: 8.3 ± 0.92 ml/min gww

bioavailability (comparison between intravenous and oral administration) [1]: good bioavailability
EC50 (isolated guanyl cyclase): ~200 µM
SMILES: CCOC(=O)[C@H](CS)NC(=O)C(C)(C)CO[N+](=O)[O-] [N-(3-nitratopivaloyl)-cysteine ethyl ester]
course of action on circulatory parameters [1]: typical of a nitrate
Activity Drop in flow [2]: 5.2%
Maximum Coronary Increase [2]: 6.6 ± 0.88 ml/min gww
EC25 (guinea pig heart; working heart model, guinea pig, converted from μg per liter): 1.3 µM
EC25 (guinea pig heart; working heart model, guinea pig, per liter of perfusion medium): 0.38 µg/mL
weakening of the coronary dilating effect (tolerance development) (guinea pig heart; one hour drenching perfusion, any dose, guinea pig heart): No weakening of the coronary dilating effect
effect on coronary flow (guinea pig heart; working heart model, guinea pig, very low dose range): concentration-dependent increase of the coronary flow
activation of guanyl cyclase (formation of cGMP per unit time) (isolated guanyl cyclase): concentration-dependent activation of the enzyme
activation of guanyl cyclase without cysteine (isolated guanyl cyclase; in vitro, absence of cysteine): activation occurs in vitro even in the absence of cysteine
